Results: US10966426B2, “Herbicidal compositions comprising phenylpyrimidines” (BASF SE, priority 2016, dated 2021)
Values joined by “and” are separate entries in the source; they are usually repeats but may differ in a detail not shown here. Identical values can stand only once.

What was measured:
Type in all cases: in vivo
Polygonum convolvulus = assay: greenhouse pre-emergence treatment, POLCO
Method in brief: (§1)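 Seeds were sown per species in pots of loamy sand with about 3.0% humus, sprayed with the aqueous spray liquor directly after sowing, watered and hooded until rooted, then kept at 10-25° C. or 20-35° C. for 2 to 4 weeks. Damage was scored 0 (none) to 100 (no emergence/complete destruction).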

Alopecurus myosuroides = assay: greenhouse pre-emergence treatment, ALOMY; settings: 20 DAT
Method in brief: as §1

Galium aparine = assay: greenhouse post-emergence treatment, GALAP
Method in brief: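 Each species was grown separately and treated once it reached 3 to 15 cm, using actives suspended or emulsified in water. Plants were kept at 10-25° C. or 20-35° C., depending on species. Damage is a 0–100 rating taken during 2 to 4 weeks.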

Setaria viridis = assay: greenhouse pre-emergence treatment, SETVI
Method in brief: as §1

Echinocloa crus-galli = assay: greenhouse pre-emergence treatment, ECHCG
Method in brief: as §1

Helianthus annuus [1] = assay: greenhouse pre-emergence treatment, HELAN; settings: HELAN
Method in brief: as §1

Polygonum aviculare = assay: greenhouse post-emergence treatment, POLAV
Method in brief: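 Scale 0–100 damage rating (100 = complete destruction of above-ground parts, 0 = normal growth), read 2 to 4 weeks after post-emergence application of aqueous spray liquor to plants 3–15 cm tall.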

Digitaria sanguinalis = assay: greenhouse post-emergence treatment, DIGSA
Method in brief: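 Scoring ran on a 0-100 scale, 100 meaning no emergence or destroyed above-ground parts, over a 2-4 week period; Colby formula E=X+Y−(X·Y/100) gave expected mixture effects. Species grew separately in loamy sand (about 3.0% humus) at 10-25° C or 20-35° C, with water as solvent.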

Stellaria media = assay: greenhouse post-emergence treatment, STEME
Method in brief: (§2)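 Mixtures formulated as 10% by weight emulsion concentrates, applied in water post-emergence to plants of 3–15 cm. Cool-season species held at 10-25° C., warm-season at 20-35° C.; rating 0 (no damage) to 100 (destruction).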

Poa annua = assay: greenhouse post-emergence treatment, POAAN
Method in brief: as §2

Brachiaria decumbens = assay: greenhouse pre-emergence treatment, BRADC
Method in brief: as §1

Ambrosia elatior = assay: greenhouse post-emergence treatment, AMBEL
Method in brief: as §2

Helianthus annuus [2] = assay: greenhouse post-emergence treatment, HELAN
Method in brief: as §2

[3] = 20 DAT, Ex. 26 solo 62.5 gai/ha
[4] = 20 DAT, Ex. 26 solo 31.25 gai/ha
[5] = 20 DAT, solo Ex. 26 62.5 gai/ha
[6] = Ex. 26 solo 31.25 gai/ha, 20 DAT
[7] = Ex. 26 solo 62.5 gai/ha, 20 DAT

Measured: % activity

COC(=O)c1nc(C2CC2)ncc1-c1ccc(F)cc1Cl [Ex. 26]
25%: Galium aparine; GALAP, 21 DAT, solo Ex. 26 250 gai/ha | Setaria viridis; Ex. 26 solo 250 gai/ha, 21 DAT, SETVI | Helianthus annuus [2]; Ex. 26 solo, 250 gai/ha, 21 DAT, HELAN
65%: Poa annua; 21 DAT, Ex. 26 solo 125 gai/ha | Brachiaria decumbens; BRADC, Ex. 26 solo 250 gai/ha, 20 DAT
0% and 10%: Helianthus annuus [2]; 20 DAT, HELAN, Ex. 26 solo 125 gai/ha
75% and 70%: Poa annua; 20 DAT, POAAN, Ex. 26 solo 125 gai/ha
50%: Echinocloa crus-galli; [4] | Echinocloa crus-galli; [6] | Echinocloa crus-galli; Ex. 26 solo, 31.25 gai/ha, 20 DAT | Brachiaria decumbens; 20 DAT, BRADC, Ex. 26 solo 125 gai/ha
70%: Echinocloa crus-galli; [7] | Poa annua; 20 DAT, Ex. 26 solo 250 gai/ha | Poa annua; Ex. 26 solo, 250 gai/ha, 20 DAT, POAAN | Poa annua; POAAN, Ex. 26 solo 125 gai/ha, 20 DAT
20% and 30%: Digitaria sanguinalis; 20 DAT, Ex. 26 solo 250 gai/ha | Brachiaria decumbens; BRADC, Ex. 26 solo 125 gai/ha, 20 DAT
55%: Stellaria media; Ex. 26 solo 125 gai/ha, 20 DAT, STEME
90%: Echinocloa crus-galli; 20 DAT, Ex. 26 solo 125 gai/ha | Echinocloa crus-galli; Ex. 26 solo 125 gai/ha, 20 DAT | Polygonum aviculare; Ex. 26 solo 125 gai/ha, 20 DAT, POLAV | Polygonum aviculare; POLAV, 21 DAT, solo Ex. 26 125 gai/ha
10%: Setaria viridis; 20 DAT, Ex. 26 solo 125 gai/ha | Setaria viridis; SETVI, Ex. 26 solo 125 gai/ha, 20 DAT | Stellaria media; Ex. 26 solo, 250 gai/ha, 21 DAT, STEME | Stellaria media; STEME, 21 DAT, solo Ex. 26 250 gai/ha | Brachiaria decumbens; 21 DAT, BRADC, Ex. 26 solo 125 gai/ha | Helianthus annuus [2]; 20 DAT, HELAN, Ex. 26 solo 250 gai/ha | Helianthus annuus [2]; Ex. 26 solo, 125 gai/ha, 21 DAT, HELAN
40%: Stellaria media; STEME, Ex. 26 solo 125 gai/ha, 20 DAT | Stellaria media; STEME, Ex. 26 solo 250 gai/ha, 20 DAT | Poa annua; Ex. 26 solo, 125 gai/ha, 20 DAT, POAAN | Poa annua; Ex. 26 solo, 125 gai/ha, 21 DAT, POAAN | Ambrosia elatior; 20 DAT, AMBEL, Ex. 26 solo 250 gai/ha
60%: Alopecurus myosuroides; Ex. 26 solo 62.5 gai/ha | Alopecurus myosuroides; Ex. 26 solo, 31.25 gai/ha | Echinocloa crus-galli; [5] | Stellaria media; 20 DAT, STEME, Ex. 26 solo 250 gai/ha | Poa annua; POAAN, Ex. 26 solo 250 gai/ha, 20 DAT | Ambrosia elatior; AMBEL, Ex. 26 solo 250 gai/ha, 20 DAT
5%: Ambrosia elatior; Ex. 26 solo 62.5 gai/ha, 21 DAT, AMBEL | Helianthus annuus [2]; Ex. 26 solo 250 gai/ha, 20 DAT, HELAN
0%: Polygonum convolvulus; [3] | Polygonum convolvulus; 20 DAT, Ex. 26 solo 125 gai/ha | Polygonum convolvulus; 20 DAT, POLCO, Ex. 26 solo 31.25 gai/ha | Polygonum convolvulus; 20 DAT, POLCO, Ex. 26 solo 62.5 gai/ha | Polygonum convolvulus; 20 DAT, POLCO, Ex. 26 solo 125 gai/ha | Polygonum convolvulus; Ex. 26 solo 62.5 gai/ha, 20 DAT, POLCO | Polygonum convolvulus; Ex. 26 solo 125 gai/ha, 20 DAT, POLCO | Polygonum convolvulus; Ex. 26 solo, 62.5 gai/ha, 20 DAT, POLCO | Polygonum convolvulus; Ex. 26 solo, 125 gai/ha, 20 DAT, POLCO | Polygonum convolvulus; POLCO, 20 DAT, solo Ex. 26 62.5 gai/ha | Polygonum convolvulus; POLCO, 20 DAT, solo Ex. 26 125 gai/ha | Polygonum convolvulus; POLCO, Ex. 26 solo 125 gai/ha, 20 DAT | Galium aparine; 20 DAT, Ex. 26 solo 125 gai/ha | Galium aparine; 20 DAT, GALAP, Ex. 26 solo 62.5 gai/ha | Galium aparine; 20 DAT, GALAP, Ex. 26 solo 125 gai/ha | Galium aparine; 20 DAT, GALAP, Ex. 26 solo 250 gai/ha | Galium aparine; Ex. 26 solo 62.5 gai/ha, 20 DAT, GALAP (pyridate table) | Galium aparine; Ex. 26 solo 62.5 gai/ha, 20 DAT, GALAP (pyroxsulam table) | Galium aparine; Ex. 26 solo 125 gai/ha, 20 DAT, GALAP (pyridate table) | Galium aparine; Ex. 26 solo 125 gai/ha, 20 DAT, GALAP (pyroxsulam table) | Galium aparine; Ex. 26 solo 125 gai/ha, 21 DAT, GALAP | Galium aparine; Ex. 26 solo 250 gai/ha, 20 DAT, GALAP (pyridate table) | Galium aparine; Ex. 26 solo 250 gai/ha, 21 DAT, GALAP | Galium aparine; GALAP, Ex. 26 solo 125 gai/ha, 20 DAT | Galium aparine; GALAP, Ex. 26 solo 250 gai/ha, 20 DAT | Setaria viridis; [4] | Setaria viridis; [3] | Setaria viridis; Ex. 26 solo 62.5 gai/ha, 20 DAT, SETVI | Setaria viridis; Ex. 26 solo 62.5 gai/ha, 21 DAT, SETVI | Setaria viridis; Ex. 26 solo 125 gai/ha, 20 DAT, SETVI | Setaria viridis; Ex. 26 solo, 31.25 gai/ha, 20 DAT, SETVI | Setaria viridis; Ex. 26 solo, 62.5 gai/ha, 20 DAT, SETVI | Setaria viridis; Ex. 26 solo, 125 gai/ha, 20 DAT, SETVI | Setaria viridis; SETVI, 20 DAT, solo Ex. 26 125 gai/ha | Helianthus annuus [1]; [4] | Helianthus annuus [1]; 20 DAT, Ex. 26 solo 125 gai/ha | Helianthus annuus [1]; 21 DAT, Ex. 26 solo 125 gai/ha | Helianthus annuus [1]; 21 DAT, Ex. 26 solo 250 gai/ha | Helianthus annuus [1]; Ex. 26 solo 125 gai/ha, 21 DAT | Helianthus annuus [1]; Ex. 26 solo 250 gai/ha, 21 DAT | Helianthus annuus [1]; Ex. 26 solo, 62.5 gai/ha, 20 DAT | Helianthus annuus [1]; Ex. 26 solo, 125 gai/ha, 20 DAT | Helianthus annuus [1]; [5] | Helianthus annuus [1]; [6] | Helianthus annuus [1]; [7] | Helianthus annuus [1]; Ex. 26 solo 125 gai/ha, 20 DAT | Digitaria sanguinalis; 20 DAT, DIGSA, Ex. 26 solo 125 gai/ha | Digitaria sanguinalis; [3] | Digitaria sanguinalis; 21 DAT, Ex. 26 solo 125 gai/ha | Digitaria sanguinalis; DIGSA, Ex. 26 solo 125 gai/ha, 20 DAT | Digitaria sanguinalis; Ex. 26 solo 62.5 gai/ha, 20 DAT, DIGSA | Stellaria media; [3] | Stellaria media; Ex. 26 solo 125 gai/ha, 21 DAT, STEME | Stellaria media; Ex. 26 solo, 125 gai/ha, 21 DAT, STEME | Stellaria media; STEME, 21 DAT, solo Ex. 26 62.5 gai/ha | Stellaria media; STEME, 21 DAT, solo Ex. 26 125 gai/ha | Brachiaria decumbens; [4] | Brachiaria decumbens; [3] | Brachiaria decumbens; BRADC, Ex. 26 solo 31.25 gai/ha, 20 DAT | Brachiaria decumbens; BRADC, Ex. 26 solo 62.5 gai/ha, 20 DAT | Brachiaria decumbens; Ex. 26 solo 125 gai/ha, 20 DAT, BRADC | Brachiaria decumbens; Ex. 26 solo, 31.25 gai/ha, 20 DAT, BRADC | Brachiaria decumbens; Ex. 26 solo, 62.5 gai/ha, 20 DAT, BRADC | Brachiaria decumbens; Ex. 26 solo, 125 gai/ha, 20 DAT, BRADC | Ambrosia elatior; 20 DAT, AMBEL, Ex. 26 solo 62.5 gai/ha | Ambrosia elatior; 20 DAT, AMBEL, Ex. 26 solo 125 gai/ha | Ambrosia elatior; [3] | Ambrosia elatior; 20 DAT, Ex. 26 solo 125 gai/ha | Ambrosia elatior; 20 DAT, Ex. 26 solo 250 gai/ha | Ambrosia elatior; 21 DAT, Ex. 26 solo 250 gai/ha | Ambrosia elatior; AMBEL, Ex. 26 solo 62.5 gai/ha, 20 DAT | Ambrosia elatior; AMBEL, Ex. 26 solo 125 gai/ha, 20 DAT | Ambrosia elatior; Ex. 26 solo 62.5 gai/ha, 20 DAT, AMBEL (pyridate table) | Ambrosia elatior; Ex. 26 solo 62.5 gai/ha, 20 DAT, AMBEL (pyroxsulam table) | Ambrosia elatior; Ex. 26 solo 125 gai/ha, 20 DAT, AMBEL (pyridate table) | Ambrosia elatior; Ex. 26 solo 125 gai/ha, 20 DAT, AMBEL (pyroxsulam table) | Ambrosia elatior; Ex. 26 solo 250 gai/ha, 21 DAT, AMBEL | Ambrosia elatior; Ex. 26 solo, 125 gai/ha, 21 DAT, AMBEL | Helianthus annuus [2]; 20 DAT, Ex. 26 solo 250 gai/ha | Helianthus annuus [2]; Ex. 26 solo 62.5 gai/ha, 20 DAT, HELAN | Helianthus annuus [2]; Ex. 26 solo 125 gai/ha, 20 DAT, HELAN
30%: Polygonum convolvulus; 20 DAT, POLCO, Ex. 26 solo 250 gai/ha | Polygonum convolvulus; POLCO, Ex. 26 solo 250 gai/ha, 20 DAT | Galium aparine; Ex. 26 solo 250 gai/ha, 20 DAT, GALAP (pyroxsulam table) | Stellaria media; Ex. 26 solo 250 gai/ha, 20 DAT, STEME | Poa annua; POAAN, 21 DAT, solo Ex. 26 62.5 gai/ha | Brachiaria decumbens; 21 DAT, BRADC, Ex. 26 solo 250 gai/ha
80%: Alopecurus myosuroides; Ex. 26 solo, 62.5 gai/ha | Poa annua; 20 DAT, POAAN, Ex. 26 solo 250 gai/ha
75%: Polygonum aviculare; [3] | Poa annua; 21 DAT, Ex. 26 solo 250 gai/ha
20%: Setaria viridis; Ex. 26 solo 125 gai/ha, 21 DAT, SETVI | Helianthus annuus [1]; [3] | Digitaria sanguinalis; DIGSA, 21 DAT, solo Ex. 26 62.5 gai/ha | Digitaria sanguinalis; DIGSA, 21 DAT, solo Ex. 26 125 gai/ha | Digitaria sanguinalis; DIGSA, 21 DAT, solo Ex. 26 250 gai/ha | Stellaria media; Ex. 26 solo 62.5 gai/ha, 20 DAT, STEME | Brachiaria decumbens; 20 DAT, Ex. 26 solo 125 gai/ha | Brachiaria decumbens; Ex. 26 solo 62.5 gai/ha, 20 DAT, BRADC | Ambrosia elatior; Ex. 26 solo 250 gai/ha, 20 DAT, AMBEL (pyroxsulam table) | Ambrosia elatior; Ex. 26 solo, 250 gai/ha, 21 DAT, AMBEL
85%: Alopecurus myosuroides; solo Ex. 26 62.5 gai/ha | Polygonum aviculare; 20 DAT, Ex. 26 solo 125 gai/ha | Polygonum aviculare; Ex. 26 solo 62.5 gai/ha, 20 DAT, POLAV | Polygonum aviculare; Ex. 26 solo, 125 gai/ha, 20 DAT, POLAV
35%: Setaria viridis; SETVI, Ex. 26 solo 250 gai/ha, 20 DAT | Poa annua; Ex. 26 solo 62.5 gai/ha, 21 DAT, POAAN
